The target of experiment [1] is T1, Cannabinoid receptor 1 (Homo sapiens, UniProt P21554). Type of experiment: functional, cell-based.
The target in experiment [2] is T2, Thromboxane A2 receptor (Homo sapiens, UniProt P21731).
T2 sequence (P21731 whole entry): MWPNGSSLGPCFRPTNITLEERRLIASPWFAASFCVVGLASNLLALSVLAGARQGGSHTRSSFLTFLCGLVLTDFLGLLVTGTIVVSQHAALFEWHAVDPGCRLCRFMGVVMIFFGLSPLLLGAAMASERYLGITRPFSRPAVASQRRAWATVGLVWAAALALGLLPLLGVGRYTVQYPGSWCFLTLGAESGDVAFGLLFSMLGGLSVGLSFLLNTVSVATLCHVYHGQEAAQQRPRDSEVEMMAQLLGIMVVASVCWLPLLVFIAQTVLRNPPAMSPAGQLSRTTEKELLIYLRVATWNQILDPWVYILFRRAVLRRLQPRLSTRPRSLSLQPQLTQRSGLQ

For experiment [3], the target named is T1, Cannabinoid receptor 1.
In experiment [4] the target is T3, 5-hydroxytryptamine receptor 1A (Homo sapiens, UniProt P08908).
T3 sequence (P08908 whole entry): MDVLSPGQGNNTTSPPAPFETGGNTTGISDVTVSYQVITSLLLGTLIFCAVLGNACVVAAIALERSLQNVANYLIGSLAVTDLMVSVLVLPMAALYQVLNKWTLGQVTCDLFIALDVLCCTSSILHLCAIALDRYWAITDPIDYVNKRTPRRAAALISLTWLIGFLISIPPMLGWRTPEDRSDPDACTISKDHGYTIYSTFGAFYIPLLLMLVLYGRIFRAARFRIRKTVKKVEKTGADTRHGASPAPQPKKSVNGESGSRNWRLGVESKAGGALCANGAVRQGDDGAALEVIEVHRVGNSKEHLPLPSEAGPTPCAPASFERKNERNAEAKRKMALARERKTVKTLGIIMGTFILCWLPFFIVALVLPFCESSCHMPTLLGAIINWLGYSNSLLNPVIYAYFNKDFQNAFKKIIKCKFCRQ
It is filed as functional, cell-based.

Experiment [5] deals with 5-hydroxytryptamine receptor 2B (Homo sapiens, UniProt P41595). Type of experiment: functional, cell-based.
Sequence of 5-hydroxytryptamine receptor 2B (P41595 whole entry): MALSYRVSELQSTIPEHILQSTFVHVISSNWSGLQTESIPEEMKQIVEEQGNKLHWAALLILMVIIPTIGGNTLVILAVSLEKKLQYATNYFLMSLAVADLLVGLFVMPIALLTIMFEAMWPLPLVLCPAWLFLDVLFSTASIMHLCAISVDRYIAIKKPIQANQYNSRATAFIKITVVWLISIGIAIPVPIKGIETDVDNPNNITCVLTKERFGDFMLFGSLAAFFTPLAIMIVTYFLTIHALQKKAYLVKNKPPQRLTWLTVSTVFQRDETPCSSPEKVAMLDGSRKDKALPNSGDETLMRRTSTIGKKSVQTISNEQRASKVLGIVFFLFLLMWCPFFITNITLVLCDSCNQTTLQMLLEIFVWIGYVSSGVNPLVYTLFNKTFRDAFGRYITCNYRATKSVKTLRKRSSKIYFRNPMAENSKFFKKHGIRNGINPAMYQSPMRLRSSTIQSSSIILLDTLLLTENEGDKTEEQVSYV
Experiment [6] addresses T4, Gastrin/cholecystokinin type B receptor (Homo sapiens, UniProt P32239).
T4 sequence (P32239 whole entry): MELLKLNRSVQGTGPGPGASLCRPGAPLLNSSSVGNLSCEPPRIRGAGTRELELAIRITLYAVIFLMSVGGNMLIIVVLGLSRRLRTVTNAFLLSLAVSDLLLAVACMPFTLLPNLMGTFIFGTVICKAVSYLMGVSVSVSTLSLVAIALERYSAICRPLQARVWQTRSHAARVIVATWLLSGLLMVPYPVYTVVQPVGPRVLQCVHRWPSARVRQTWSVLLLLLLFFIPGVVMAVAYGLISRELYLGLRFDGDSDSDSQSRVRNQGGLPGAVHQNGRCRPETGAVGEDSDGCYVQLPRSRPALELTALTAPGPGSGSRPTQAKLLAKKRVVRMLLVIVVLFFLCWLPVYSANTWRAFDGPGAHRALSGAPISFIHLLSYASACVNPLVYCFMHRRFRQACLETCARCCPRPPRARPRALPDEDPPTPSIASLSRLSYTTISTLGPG

Experiment [7] concerns the target Sodium-dependent noradrenaline transporter (Homo sapiens, UniProt P23975).
Another experiment deals with T5, Adenosine receptor A3 (Homo sapiens, UniProt P0DMS8).
T5 sequence (P0DMS8 whole entry): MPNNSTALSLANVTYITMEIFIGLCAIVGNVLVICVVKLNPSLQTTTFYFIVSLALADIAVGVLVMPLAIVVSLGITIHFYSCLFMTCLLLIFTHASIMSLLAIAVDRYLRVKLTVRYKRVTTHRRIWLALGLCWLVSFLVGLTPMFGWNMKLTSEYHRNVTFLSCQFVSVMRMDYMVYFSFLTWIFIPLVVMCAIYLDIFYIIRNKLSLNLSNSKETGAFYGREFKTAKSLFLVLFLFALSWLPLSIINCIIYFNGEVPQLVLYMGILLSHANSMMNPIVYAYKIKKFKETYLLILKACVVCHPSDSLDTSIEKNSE

The next experiment deals with T6, Estrogen receptor (Homo sapiens, UniProt P03372).
T6 sequence (P03372 whole entry): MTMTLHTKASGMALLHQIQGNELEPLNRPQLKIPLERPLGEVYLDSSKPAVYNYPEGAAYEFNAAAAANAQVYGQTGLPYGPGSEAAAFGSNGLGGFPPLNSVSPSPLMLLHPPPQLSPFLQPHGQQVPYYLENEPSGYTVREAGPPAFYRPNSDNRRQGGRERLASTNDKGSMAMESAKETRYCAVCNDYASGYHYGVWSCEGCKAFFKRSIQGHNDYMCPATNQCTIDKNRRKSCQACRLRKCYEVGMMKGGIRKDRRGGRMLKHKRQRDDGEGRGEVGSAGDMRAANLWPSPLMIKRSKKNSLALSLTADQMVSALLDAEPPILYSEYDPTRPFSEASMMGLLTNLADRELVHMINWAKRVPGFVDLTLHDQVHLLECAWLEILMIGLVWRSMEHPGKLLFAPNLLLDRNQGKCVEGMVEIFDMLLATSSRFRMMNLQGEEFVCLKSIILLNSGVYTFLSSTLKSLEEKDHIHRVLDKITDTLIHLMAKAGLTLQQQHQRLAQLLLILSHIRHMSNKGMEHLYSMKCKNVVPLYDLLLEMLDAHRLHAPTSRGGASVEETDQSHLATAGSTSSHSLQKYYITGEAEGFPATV

Another experiment concerns the target Prothrombin (Homo sapiens, UniProt P00734). Type of experiment: functional.
The target of experiment [8] is Sodium-dependent serotonin transporter (Homo sapiens, UniProt P31645).
Sequence of Sodium-dependent serotonin transporter (P31645 whole entry): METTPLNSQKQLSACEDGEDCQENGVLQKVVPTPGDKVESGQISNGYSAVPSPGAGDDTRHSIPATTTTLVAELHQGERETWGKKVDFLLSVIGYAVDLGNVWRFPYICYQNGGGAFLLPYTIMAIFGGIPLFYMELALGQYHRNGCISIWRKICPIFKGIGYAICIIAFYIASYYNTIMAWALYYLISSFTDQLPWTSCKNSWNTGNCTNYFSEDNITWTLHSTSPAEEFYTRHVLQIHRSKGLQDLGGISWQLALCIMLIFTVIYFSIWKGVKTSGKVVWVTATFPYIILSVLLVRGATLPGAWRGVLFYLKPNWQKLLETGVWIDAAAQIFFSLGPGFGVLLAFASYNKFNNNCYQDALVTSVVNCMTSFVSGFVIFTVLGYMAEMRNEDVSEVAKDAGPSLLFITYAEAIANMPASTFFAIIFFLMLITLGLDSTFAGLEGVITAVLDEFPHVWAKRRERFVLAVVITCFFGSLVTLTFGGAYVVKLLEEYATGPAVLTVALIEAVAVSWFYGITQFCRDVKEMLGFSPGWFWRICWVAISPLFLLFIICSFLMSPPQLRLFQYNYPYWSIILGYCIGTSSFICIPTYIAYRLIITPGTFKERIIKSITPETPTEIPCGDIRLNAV
For experiment [9], the target named is T2, Thromboxane A2 receptor. Type of experiment: functional, cell-based.

Each structure is given as a SMILES string.
Also: assay procedure not described here.

Sequence of Sodium-dependent noradrenaline transporter (P23975 whole entry): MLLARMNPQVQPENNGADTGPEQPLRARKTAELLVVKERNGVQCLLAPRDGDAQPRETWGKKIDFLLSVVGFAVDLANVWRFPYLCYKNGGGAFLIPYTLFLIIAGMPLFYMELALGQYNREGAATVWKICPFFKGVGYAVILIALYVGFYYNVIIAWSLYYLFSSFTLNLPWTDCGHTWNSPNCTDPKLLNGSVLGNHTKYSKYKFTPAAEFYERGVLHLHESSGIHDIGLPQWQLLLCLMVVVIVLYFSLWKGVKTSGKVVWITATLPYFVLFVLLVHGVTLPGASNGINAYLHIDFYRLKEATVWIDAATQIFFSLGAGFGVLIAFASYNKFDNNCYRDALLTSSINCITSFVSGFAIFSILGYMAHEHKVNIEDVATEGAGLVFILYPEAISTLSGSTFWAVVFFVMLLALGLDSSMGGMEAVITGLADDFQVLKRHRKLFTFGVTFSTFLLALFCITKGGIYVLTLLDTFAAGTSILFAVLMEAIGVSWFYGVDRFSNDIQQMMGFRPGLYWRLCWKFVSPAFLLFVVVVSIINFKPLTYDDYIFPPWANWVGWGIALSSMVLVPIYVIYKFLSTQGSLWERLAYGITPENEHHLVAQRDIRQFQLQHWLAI
T1 sequence (P21554 whole entry): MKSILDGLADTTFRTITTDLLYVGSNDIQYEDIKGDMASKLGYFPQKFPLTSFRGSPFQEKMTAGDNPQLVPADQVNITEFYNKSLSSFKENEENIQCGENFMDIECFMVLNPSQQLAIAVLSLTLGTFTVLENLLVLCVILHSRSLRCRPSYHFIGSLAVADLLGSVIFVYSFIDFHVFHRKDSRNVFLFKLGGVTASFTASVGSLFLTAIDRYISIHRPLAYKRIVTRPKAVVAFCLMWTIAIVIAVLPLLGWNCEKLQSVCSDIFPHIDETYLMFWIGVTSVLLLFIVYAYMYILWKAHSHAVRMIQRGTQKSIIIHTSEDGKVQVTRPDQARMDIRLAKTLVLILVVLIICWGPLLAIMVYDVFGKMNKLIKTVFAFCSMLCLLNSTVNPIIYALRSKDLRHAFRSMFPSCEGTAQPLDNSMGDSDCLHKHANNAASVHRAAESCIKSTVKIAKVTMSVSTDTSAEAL

As to `c1ccc([C@H]2CN3CCSC3=N2)cc1` [LEVAMISOLE], the AC50 (at Cannabinoid receptor 1 [1]; at Thromboxane A2 receptor [2]; on Cannabinoid receptor 1 [3]; in [4]; in experiment [5]) was over 30 µM throughout.
In the case of `CN(C)CCC(c1ccc(Cl)cc1)c1ccccn1` (stereo unspecified) [CHLORPHENIRAMINE], the AC50 (commonly the concentration at which the activity in the assay is half-maximal) was over 30 µM on Cannabinoid receptor 1 [1]; over 30 µM at Thromboxane A2 receptor [2]; over 30 µM in experiment [6]; over 10 µM at Cannabinoid receptor 1 [3]; over 10 µM in experiment [4]; over 10 µM in experiment [5].
For the compound `O=C(OCC(O)CO)c1ccccc1Nc1ccnc2cc(Cl)ccc12` (stereo unspecified) [GLAFENINE], the AC50 in [7] is 17 µM; on Adenosine receptor A3, 1.4 µM; on Estrogen receptor, over 30 µM; at Prothrombin, over 30 µM; at Cannabinoid receptor 1 [1] it was over 30 µM; in [8] it was over 30 µM. Moreover, the concentration at half-maximal activity (AC50) (in experiment [4]; in [5]; at Thromboxane A2 receptor [9]) was over 30 µM throughout.
Consider `CCOC(=O)[C@H](CCc1ccccc1)N[C@@H](C)C(=O)N1[C@H](C(=O)O)C[C@@H]2CCC[C@@H]21`, for which the half-maximal activity concentration (AC50) on Cannabinoid receptor 1 [1] is over 30 µM; at Thromboxane A2 receptor [2], over 30 µM; in experiment [6], over 30 µM; on Cannabinoid receptor 1 [3] it was over 10 µM; in [4], over 10 µM; in experiment [5], over 10 µM.
Take `CC[C@H]1[C@@H](O)[C@@H]2[C@H](CC[C@]3(C)[C@@H]([C@H](C)CCC(=O)O)CC[C@@H]23)[C@@]2(C)CC[C@@H](O)C[C@@H]12` [OBETICHOLIC ACID]: the half-maximal activity concentration (AC50) (in experiment [7]; at Adenosine receptor A3; on Estrogen receptor; at Prothrombin; on Cannabinoid receptor 1 [1]; on Thromboxane A2 receptor [2]) was over 30 µM in each case. Moreover, the AC50 (in experiment [6]; in experiment [8]; at Thromboxane A2 receptor [9]) was over 30 µM each time.
In the case of `CCCN1C[C@H](CSC)C[C@@H]2c3cccc4[nH]cc(c34)C[C@H]21` [PERGOLIDE], the AC50 was over 30 µM at Cannabinoid receptor 1 [1], over 30 µM at Thromboxane A2 receptor [2], over 30 µM in [6] and over 10 µM on Cannabinoid receptor 1 [3].
For `Cc1ccc(-c2cc(C(F)(F)F)nn2-c2ccc(S(N)(=O)=O)cc2)cc1` [CELECOXIB], the concentration at half-maximal activity (AC50) is over 30 µM on Cannabinoid receptor 1 [1]; over 10 µM at Thromboxane A2 receptor [2]; over 10 µM in [6]; over 10 µM at Cannabinoid receptor 1 [3]; over 10 µM in experiment [4]; over 10 µM in experiment [5].
`O=P1(NCCCl)OCCCN1CCCl` (stereo unspecified) [IFOSFAMIDE]: the AC50 (on Thromboxane A2 receptor [2]; in experiment [6]; on Cannabinoid receptor 1 [3]; in experiment [4]; in [5]) was over 30 µM in each case.
Take `CCCSc1ccc2nc(NC(=O)OC)[nH]c2c1` [ALBENDAZOLE]: the AC50 at Thromboxane A2 receptor [2] is over 30 µM; on Cannabinoid receptor 1 [3], over 10 µM; in experiment [4] it was over 10 µM; in experiment [5] it was over 10 µM.
In the case of `CCC(C)n1ncn(-c2ccc(N3CCN(c4ccc(OCC5COC(Cn6cncn6)(c6ccc(Cl)cc6Cl)O5)cc4)CC3)cc2)c1=O` (stereo unspecified) [ITRACONAZOLE], the AC50 (at Cannabinoid receptor 1 [1]; at Thromboxane A2 receptor [2]; in experiment [6]; at Cannabinoid receptor 1 [3]; in experiment [4]; in experiment [5]) was over 30 µM throughout.
For the compound `Cc1cn([C@H]2C[C@H](N=[N+]=[N-])[C@@H](CO)O2)c(=O)[nH]c1=O` [ZIDOVUDINE], the concentration at half-maximal activity (AC50) (in experiment [7]; at Adenosine receptor A3; on Estrogen receptor; at Prothrombin; at Cannabinoid receptor 1 [1]; on Thromboxane A2 receptor [2]) was over 30 µM throughout. Also, the AC50 in experiment [6] was over 30 µM; in experiment [4], over 10 µM; in experiment [5], over 10 µM; on Thromboxane A2 receptor [9], over 30 µM.
In the case of `C[C@@H](O)[C@H]1C(=O)N2C(C(=O)O)=C(S[C@@H]3CN[C@H](C(=O)N(C)C)C3)[C@H](C)[C@H]12` [MEROPENEM], the AC50 is over 300 µM at Cannabinoid receptor 1 [1]; over 10 µM at Thromboxane A2 receptor [2]; over 10 µM on Cannabinoid receptor 1 [3]; over 300 µM in [4]; over 300 µM in experiment [5].
`C[C@]12CCC(=O)C=C1CC[C@@H]1[C@@H]2[C@@H](O)C[C@@]2(C)[C@H]1CC[C@]2(O)C(=O)CO` [HYDROCORTISONE]: the AC50 on Cannabinoid receptor 1 [1] was over 30 µM; at Thromboxane A2 receptor [2], over 30 µM; in experiment [6], over 30 µM; on Cannabinoid receptor 1 [3], over 10 µM; in experiment [4], over 10 µM; in experiment [5], over 10 µM.
Regarding `CN(C)/N=N/c1[nH]cnc1C(N)=O` [DACARBAZINE], the AC50 (on Thromboxane A2 receptor [2]; at Cannabinoid receptor 1 [3]; in experiment [4]; in [5]) was over 10 µM throughout.
For `Clc1ccc2nsnc2c1NC1=NCCN1` [TIZANIDINE], the concentration at half-maximal activity (AC50) was over 30 µM at Cannabinoid receptor 1 [1]; over 30 µM on Thromboxane A2 receptor [2]; over 30 µM in [6]; over 10 µM on Cannabinoid receptor 1 [3]; over 10 µM in experiment [4]; over 30 µM in experiment [5].
With `CC1=C(C(=O)O)N2C(=O)[C@@H](NC(=O)[C@H](N)c3ccccc3)[C@H]2SC1` [CEPHALEXIN ANHYDROUS], the AC50 is over 30 µM at Cannabinoid receptor 1 [1]; over 30 µM at Thromboxane A2 receptor [2]; over 30 µM in experiment [6]; over 10 µM at Cannabinoid receptor 1 [3]; over 10 µM in experiment [4].
Regarding `Nc1ccn([C@H]2CC[C@@H](CO)O2)c(=O)n1` [ZALCITABINE], the concentration at half-maximal activity (AC50) at Cannabinoid receptor 1 [1] is over 30 µM; on Thromboxane A2 receptor [2], over 10 µM; in experiment [8], over 10 µM; at Cannabinoid receptor 1 [3] it was over 10 µM; in experiment [4] it was over 10 µM; in [5], over 10 µM.
As to `NS(=O)(=O)Cc1noc2ccccc12` [ZONISAMIDE], the AC50 (on Thromboxane A2 receptor [2]; in experiment [8]; on Cannabinoid receptor 1 [3]; in experiment [4]; in experiment [5]) was over 10 µM throughout.
With `CN1C(=O)CCS(=O)(=O)C1c1ccc(Cl)cc1` (stereo unspecified) [CHLORMEZANONE], the AC50 (at Thromboxane A2 receptor [2]; in [8]; at Cannabinoid receptor 1 [3]; in experiment [4]; in experiment [5]) was over 10 µM each time.
`Clc1ccc(C(c2ccccc2Cl)C(Cl)Cl)cc1` (stereo unspecified) [MITOTANE]: the AC50 is over 10 µM on Thromboxane A2 receptor [2], 12.8 µM on Cannabinoid receptor 1 [3], over 10 µM in [4] and over 10 µM in experiment [5].

(Values after ChEMBL document CHEMBL5291721, “A preclinical secondary pharmacology resource illuminates target-adverse drug reaction associations of marketed drugs” (Nat Commun, 2023).)
